Read-outs that look alike come from different tables or passages of the source.

The text below walks through data of PMC10238420, “Altered Signaling and Desensitization Responses in PTH1R Mutants Associated with Eiken Syndrome” (Communications Biology, 2023).

For test [1], the system named is PTH1R-R485X. To be noted: 30 nM TMR ligand (unlabeled: 10 nM), 30 min. How it is done:
(§1) Images are representative of three independent experiments.
Data are representative of three independent experiments (a-d); or means ± SEM of three or four independent experiments (e, f). Bar heights in graphs of panels b and d indicate the means ± SEM of counts from the five cells shown by the individual data points. Scale bars in a and c indicate 10 μm.
Ligand-induced recruitment of β-arrestin2^YFP was assessed in GBR-24 cells, which are HEK293/glosensor (Gs22A)-derived cells stably expressing β-arrestin2^YFP [42]. The cells in six-well plates were transiently transfected with plasmid DNA encoding PTH1R-WT or mutant derivative, and 24 hours later seeded onto glass coverslips in 6-well plates. […] In some experiments, the cells were imaged by confocal microscopy using a Leica DMi8 inverted Microscope at ×400 magnification, and the images were processed using Leica Application Suite X (LAS X) software. Regions of interest were digitally expanded 3-5X to improve views.
Quantification of β-arrestin2^YFP clusters was performed using ImageJ software (vers. 1.53)[67]. The color images were converted to 8 bit and then 16 bit gray-scale, and the threshold was adjusted on a cell-by-cell basis to show distinct particles (interpreted as clusters of β-arrestin2^YFP in intracellular vesicles); threshold values ranged from ~ 20-60. The free-hand tool was used to define the area analyzed for each cell, and the Analyze Particle tool was used to obtain the number of particles, the total area, and the mean gray scale (intensity) of each particle for each cell.

The target in test [2] is T1, PTH1R-E35K (Homo sapiens, UniProt Q03431, E35K). Nature of the test: Fluorescence microscopy of ligand internalization and β-arrestin2YFP recruitment, GBR-24 cells, ImageJ. To be noted: 30 nM TMR ligand (unlabeled: 10 nM), 30 min. It counts as cell-based.
Text: as §1
(§2) Scale bars in a and c indicate 10 μm.

The target of test [3] is T2, PTH1R-WT (Homo sapiens, UniProt Q03431). Described as above. It counts as cell-based. To be noted: 30 nM TMR ligand (unlabeled: 10 nM), 30 min.
Text: as §1, §2

In test [4] the target is T3, PTH1R-Y134S (Homo sapiens, UniProt Q03431, Y134S). The test is described as above. It counts as cell-based. To be noted: 30 nM TMR ligand (unlabeled: 10 nM), 30 min.
Text: as §1, §2

Test [5] deals with T2, PTH1R-WT. Briefly: Glosensor cAMP agonist dose-response, Gs22a cells. It counts as cell-based. To be noted: % of maximum response of each ligand on PTH1R-WT; five experiments.
Test [6] has as its target T4, PTH1R-R485X (Homo sapiens, UniProt Q03431). Briefly: cell-based.
Test [7] has as its target T1, PTH1R-E35K. Briefly: Glosensor cAMP agonist dose-response, Gs22a cells. It counts as cell-based. To be noted: % of maximum response of each ligand on PTH1R-WT; five experiments.
Test [8] has as its target T3, PTH1R-Y134S. Nature of the test: Glosensor cAMP agonist dose-response, Gs22a cells. It counts as cell-based. To be noted: % of maximum response of each ligand on PTH1R-WT; five experiments.
Test [9] concerns the target T5, PTH1R-H223R (Homo sapiens, UniProt Q03431, H223R). Nature of the test: Glosensor cAMP agonist dose-response, Gs22a cells. As to conditions: % of maximum response of each ligand on PTH1R-WT; five experiments. It counts as cell-based.
In test [10] the target is T1, PTH1R-E35K. Nature of the test: Competition binding vs 125I-LA-PTH*, intact Gs22a cells. To be noted: four experiments. The source says:
(§3) Supplemental Table 4. Competition Binding Data.
(§4) Ligand-binding properties of PTH1R variants
(§5) Suppl ement al Tabl e 4. Radi ol i gand Bi n d i n g Dat a. […]
(§6) as compet i t or. […] The fit values of […]
(§7) Dat a ar e means (±SEM) of f our exper i ment s; p val ues ar e St udent ’s T t est compar i sons t o

The target in test [11] is T5, PTH1R-H223R. The test is described as above. To be noted: % of maximum SB at PTHR1-WT; four experiments.
Text: as §3, §4, §5, §6, §7

Test [12] concerns the target T2, PTH1R-WT. Described as above. As to conditions: % of maximum SB at PTHR1-WT; four experiments.
Text: as §3, §4, §5, §6, §7

In test [13] the target is T3, PTH1R-Y134S. Described as above. As to conditions: % of maximum SB at PTHR1-WT; four experiments.
Text: as §3, §4, §5, §6, §7

Test [14] addresses T4, PTH1R-R485X. It counts as binding. To be noted: % of maximum SB at PTHR1-WT; four experiments.
Description: Bar heights indicate the means ± SEM of three individual experiments represented by the data points. […] Data are means (±SEM) of three (a) or four experiments.
Binding was assessed on confluent monolayers of transiently transfected intact Gs22a cells in 96-well plates. Binding reactions contained HB and 20,000–30,000 cpm/well of radioligand. […] The mixtures were then removed and the cells were rinsed twice with HB and lysed with 5 N NaOH and the lysates were counted for gamma irradiation in a gamma counter. […] After incubation for 2 h at 4 °C, the mixtures were removed, the cells were rinsed twice with HB, lysed with 5N NaOH, and the lysates were counted for gamma irradiation.
The fit values of max i mum SB, as r adi oac t i v e c ount s per mi nut e (cpm), with non-specif ic binding (1, 529±418
In test [15] the target is T2, PTH1R-WT. Briefly: Visualization of surface receptors after PTH(1-34)FAM pre-stimulation. It counts as cell-based. To be noted: 30 nM, 30 min, RT.
Description: (§8) To visualize receptors on the surface of non-stimulated cells, cells were fixed with 3.7% paraformaldehyde for 5 min at room temperature, incubated for 1 hour at room temperature with anti-HA mouse monoclonal primary antibody (anti-HA.11, BioLegend, Cat. No. 901513), rinsed, incubated for 1 h at room temperature with a goat-anti-mouse IgG secondary antibody poly-conjugated to HRP (poly-HRP-anti-mIgG; ThermoFisher Scientific, Cat. No. 32230), stained with Tyramide-Alexafluor-594 (Tyr^594; Tyramide SuperBoost Kit ThermoFisher Scientific, Cat. No. B4092), then mounted on a glass microscope slide in Vectashield containing DAPI and imaged using a Nikon Eclipse fluorescence microscope at 400X magnification.
The subject of test [16] is PTH1R-R485X. To be noted: 30 nM, 30 min, RT.
Description: as §8

With “AVSEIQL L H D KGrKSIQD L R R R FFL H H L IAEIH TAEI.N H 2 [Ile^5-PTHrP(1-36)^TMR, tetramethyl rhodamine attached to the epsilon amino function of lysine-13]”, the “co-clustering of β-arrestin2YFP with ligand in endosomes, in words” value in the test on PTH1R-R485X [1] was “remained dispersed in the cytoplasm”; at PTH1R-E35K [2], “robust co-clustering of β-arrestin2^YFP”; at PTH1R-WT [3] it was “robust co-clustering of β-arrestin2^YFP”; at PTH1R-Y134S [4] it was “robust co-clustering of β-arrestin2^YFP”.
`CC[C@H](C)[C@H](NC(=O)[C@H](CCC(=O)O)NC(=O)[C@H](CO)NC(=O)[C@@H](NC(=O)[C@@H](N)CO)C(C)C)C(=O)N[C@@H](CCC(N)=O)C(=O)N[C@@H](CC(C)C)C(=O)N[C@@H](CCSC)C(=O)N[C@@H](Cc1c[nH]cn1)C(=O)N[C@@H](CC(N)=O)C(=O)N[C@@H](CC(C)C)C(=O)NCC(=O)N[C@@H](CCCCN)C(=O)N[C@@H](Cc1c[nH]cn1)C(=O)N[C@@H](CC(C)C)C(=O)N[C@@H](CC(N)=O)C(=O)N[C@@H](CO)C(=O)N[C@@H](CCSC)C(=O)N[C@@H](CCC(=O)O)C(=O)N[C@@H](CCCNC(=N)N)C(=O)N[C@H](C(=O)N[C@@H](CCC(=O)O)C(=O)N[C@@H](Cc1c[nH]c2ccccc12)C(=O)N[C@@H](CC(C)C)C(=O)N[C@@H](CCCNC(=N)N)C(=O)N[C@@H](CCCCN)C(=O)N[C@@H](CCCCN)C(=O)N[C@@H](CC(C)C)C(=O)N[C@@H](CCC(N)=O)C(=O)N[C@@H](CC(=O)O)C(=O)N[C@H](C(=O)N[C@@H](Cc1c[nH]cn1)C(=O)N[C@@H](CC(N)=O)C(=O)N[C@@H](Cc1ccccc1)C(N)=O)C(C)C)C(C)C` [PTH(1-34)]: the Emax on PTH1R-WT [5] was 100%; at PTH1R-R485X [6] (read-out: Emax of that attained on PTH1R-WT), roughly 80%; at PTH1R-R485X [6] (read-out: cAMP Emax), 81 ± 10%; at PTH1R-E35K [7], 106 ± 5%; on PTH1R-Y134S [8], 96 ± 4%; on PTH1R-H223R [9], 48 ± 6%.
As to “AVAEIQLnLHQRAKWIQDARRRAFLHKLIAEIHTAEY.NH2 [125I-LA-PTH*, radioligand prepared by chloramine T oxidation with 125I-Na]”, the “maximum specific binding (SB) of radioligand” value on PTH1R-E35K [10] (% of maximum SB at PTHR1-WT) was determined as 89 ± 11%; at PTH1R-H223R [11], 114 ± 22%; on PTH1R-WT [12], 100 ± 0%; at PTH1R-Y134S [13], 93 ± 14%; on PTH1R-R485X [14], 107 ± 14%. Further, at PTH1R-E35K [10] (non-specific binding subtracted), the “fit maximum SB of radioligand” value is given as 5,179±936 cpm.
Take “SVSEIQL MH N L GfKH L N SMER VEWL R KKL QD VH N F.OH [PTH(1-34)FAM]”: the “ligand internalization, in words” value on PTH1R-WT [15] and in the test on PTH1R-R485X [16] was “observed mainly in internalized clusters” each time.
With “AVSEH QL L H D KGrKSIQD L R R R FFL H H L IAEIH TAEI.N H 2 [PTHrP(1-36)^TMR, tetramethyl rhodamine attached to the epsilon amino function of lysine-13]”, the “co-clustering of β-arrestin2YFP with ligand in endosomes, in words” value with PTH1R-R485X [1] is recorded as “no co-clustering with β-arrestin2^YFP”; on PTH1R-E35K [2], “no co-clustering with β-arrestin2^YFP”; on PTH1R-WT [3], “robust co-clustering of the ligand in endosomes with β-arrestin2^YFP”; at PTH1R-Y134S [4] it was “no co-clustering with β-arrestin2^YFP”.
